Laboratory results from BindingDB's records for doi:10.1016/s0960-894x(99)00217-6 (Palatin Technologies, 1999).

Each compound was assayed against T1, Neutrophil elastase (Homo sapiens, UniProt P08246) (assay: ChEBML_64294).
T1 sequence (P08246 whole entry): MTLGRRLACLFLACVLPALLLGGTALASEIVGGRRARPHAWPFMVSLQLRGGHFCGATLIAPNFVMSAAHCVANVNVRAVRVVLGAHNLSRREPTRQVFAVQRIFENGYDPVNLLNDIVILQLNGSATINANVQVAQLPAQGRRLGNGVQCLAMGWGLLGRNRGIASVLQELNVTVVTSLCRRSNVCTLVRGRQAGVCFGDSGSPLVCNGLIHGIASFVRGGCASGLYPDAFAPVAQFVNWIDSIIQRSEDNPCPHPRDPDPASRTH
Text: Kinetic constant for human neutrophil elastase
`CC[C@@H](C)/C(NS(=O)(=O)c1ccc(C)cc1)=C(\O)[N]1[C@@H](CCCCNC(=O)C23CC4CC(CC(C4)C2)C3)C(=O)[N]2[C@H](C(=O)N[C@H](C(=O)O)C(C)C)C[S][Re]21=[O]` (stereo partly drawn) showed a Ki of 36.7 µM.
Compound `CC[C@@H](C)/C(NCc1ccccc1)=C(\O)[N]1[C@@H](CCCCNC(=O)C23CC4CC(CC(C4)C2)C3)C(=O)[N]2[C@H](C(=O)N[C@H](C(N)=O)C(C)C)C[S][Re]21=[O]` (stereo partly drawn) has a Ki of 194 µM.
`CC[C@@H](C)/C(NS(=O)(=O)c1ccc(C)cc1)=C(\O)[N]1[C@@H](CCCCNC(=O)C23CC4CC(CC(C4)C2)C3)C(=O)[N]2[C@H](C(=O)N[C@H](C(N)=O)C(C)C)C[S][Re]21=[O]` (stereo partly drawn) showed a Ki of 133 µM.
